From patent US20250002960A1, “COMPOSITIONS AND METHODS FOR NUCLEIC ACID EXTENSION” (Pacific Biosciences of California, Inc., priority 2023, published 2025)
Where two headings read alike, the source gives them in different places.

Tests used:
[1] = test system: NO bond at the 3′ position of a polynucleotide; assay: Octet/CE cyclic extension assay (SBB extension cycles, extended primer length read by capillary electrophoresis); type: biochemical
Text: The polynucleotides were Cy3-primers hybridized to biotinylated template DNA which were in turn bound to streptavidin coated tips of the Octet system. The Octet system move a set of 8 tips between the wells of a heated 96-well plate, for a set number of SBB extension cycles. Each cycle included an IMG step under conditions at which fluorescent nucleotides of ternary complexes could be imaged, an RTN step in which amineoxy terminated nucleotides were incorporated at the 3′ end of the primer by a polymerase, a wash step that removes excess nucleotides, and a CLV step that exposes the amineoxy terminated extended primer to a deblocking agent or candidate. The length of extended polynucleotides were then detected by capillary electrophoresis (CE), as described in US Patent Pub. No. 2019/0241945, the content of which is incorporated herein.
Polynucleotide sequence was synthesized using the Octet/CE method where non-extendable polynucleotides having a 3′ amineoxy group were used to reversibly stop extension, as shown in the workflow scheme of FIG. 1A.
(§1) CDP was formulated with a number of different buffers at different pH and various different amines as solubility enhancers. 47 formulations were made and tested. In general, CDP was dissolved in water and loaded onto Dowex 50™ cation exchange resin, and incubated for a few minutes. The resin was eluted with an aqueous solution of the amine solubility enhancer. The resulting solution was either used directly in Octet/CE assays or dried form a solid that was very soluble in water.
A number of other carbonyl compounds were test for their ability to cleave the NO bond at the 3′ position of a polynucleotide, according to the assay design shown in FIG. 1A.
Deblocking candidates were tested at various concentrations, generally between 1 and 100 mM (e.g., at 1 mM, 2 mM, 4 mM, 8 mM, 20 mM, 35 mM, 40 mM, 70 mM, and/or 100 mM for different candidates), in acetate (1 M) and tris (0.2 M) buffers, and buffered at pH 6 or 8, with and without amine counterion.

[2] = Solubility of the deblocking agent in the deblocking composition; type: physicochemical; conditions: in words
Experimental: as §1

[3] = test system: library of polynucleotides; assay: Sequencing-by-binding run, On/Off signal intensity by cycle; type: biochemical; conditions: after 150 cycles, CDP versus SOP (sodium NO2)
Experimental: A library of polynucleotides were sequenced in a sequencing-by-binding workflow, and On/Off signal intensity was measured in each sequencing cycle, as described in US Patent Pub. No. 2020/0032317, the content of which is incorporate herein. Specifically, ‘on’ signal intensity (corresponds to the binding of the cognate nucleotide) and ‘off’ signal intensity (corresponds to the binding of the non-cognate nucleotide) in each SBB cycle. By using [NaNO2] 2 M and considering pH 5.2 and based on Henderson-Hasselbalch equation, we calculated that 18 mM of the nitrous acid exists in CLV (Cleave) reagent. Although, this cleave formulation is efficient in converting dNTP-RT to dNTP on the sequencing strand, however, it may have one or more disadvantages, such as instability, corrosivity, and/or DNA damage. Regarding instability: nitrous acid in our current CLV reagent degrades and produces nitrogen oxide gas (NOx) which weaken strength of the deblocking reagent. Nitrous acid is very corrosive and has […] with plastics consumables and instruments.
Y axis is on/off intensities. […] A library of polynucleotides were sequenced in a sequencing-by-binding workflow, and On/Off signal intensity was measured in each sequencing cycle, as described in US Patent Pub. […]

[4] = compared to SOP cleave in sodium acetate buffer, in words

Compound	Extension at 40 C. in 37 cycles Octet CE assay [1]	cleavage of NO bond (deblocking, extension in multiple cycles) ([1]; in words)	Extension at 52 C. in 37 cycles octet/Ce assay [1]	also measured
O=C(P(=O)(O)O)P(=O)(O)O [CDP, Carbonyl diphosphonate]	37 bp Extension	deblocking	–	cleavage of NO bond (deblocking, extension in multiple cycles) [1]: comparable to NaNO2; negative phasing ([1]; 37 cycles of extension): 0.21%; positive phasing ([1]; 37 cycles of extension): 0.17%; negative dephasing on electropherogram [1, 4]: higher negative dephasing; positive dephasing on electropherogram [1, 4]: higher positive dephasing; dephasing of product ([1]; compared to SOP, in words): minimal dephasing; solubility issue [2]: slight solubility issue; signal to noise ratio [3]: comparable
O=Cc1ccc(S(=O)(=O)[O-])cc1S(=O)(=O)[O-].[Na+].[Na+] [Di sodium 4-formylbenzene-1,3-disolfonate]	3 bp Extension	deblocking	3 bp Extension	–
CCC(=O)CP(=O)([O-])[O-].[Na+].[Na+] [Di sodium (2-oxobutyl)phosphonate]	4 bp Extension	deblocking	4 bp Extension	–
CC(=O)P(=O)([O-])[O-].[Na+].[Na+] [Di sodium acetylphosphonate]	12 bp Extension	deblocking	3 bp Extension	–
CNC(=O)NC [Dimethyl urea, reference compound]	No Extension	–	–	–
CC(=O)OP(=O)([O-])[O-].[K+].[Li+] [LiK Aceyl Phosphate, reference compound]	No Extension	–	–	–
CS(=O)(=O)CC(=O)c1ccccc1 [Methyl sulfonyl acetophenone]	5 bp Extension	deblocking	5 bp Extension	–
O=N[O-].[Na+] [NaNO2, sodium nitrite, reference compound]	–	–	–	negative phasing [1]: 0.04%; positive phasing [1]: 0.05%
COP(=O)([O-])C(C)=O.[Na+] [methyl acetylphosphonate, methyl acetylphosphonate CH3—CO—PO(Ome)—O^− Na^+, reference compound]	No Extension	–	–	–
Hydroxycarbamide [reference compound]	No extension	–	–	–
